# Results: PMC9464622, “The collectin SP-A and its trimeric recombinant fragment protect alveolar epithelial cells from the cytotoxic and proinflammatory effects of human cathelicidin in vitro” (Frontiers in Immunology, 2022)
# What was measured:
# A549 cells = assay: LL-37-induced IL-8 secretion (ELISA); assay type: cell-based, human; conditions: A-438079 10 µM, 15 min pre-treatment; LL-37 15 µM, 24 h
# Experimental: A549 cells were seeded to a density of 50,000 cells per well in a 96-well tissue culture plate for 18 h in RPMI 1640 medium supplemented with antibiotics, 2 mM L-glutamine, and 5% FBS.
# Secreted IL-8 was quantified in supernatants of A549 cells by ELISA (R&D Systems) following the supplier instructions. Briefly, anti-human IL-8 was coated on a 96-well Nunc-Immuno Plate MaxiSorp Surface (Thermo Scientific, Waltham, MA) in PBS overnight. After blocking with PBS and 10% FBS, and extensive washing, samples and standards were incubated for 2 h at room temperature. IL-8 cytokine was detected with biotinylated detection antibody and streptavidin-HRP. The colorimetric reaction was developed with tetramethylbenzidine (BD Biosciences, San Diego, CA) and was stopped with 4 M sulfuric acid. The absorbance at 450 nm was read on an ELISA reader (RT-6100 plate reader, Rayto Life and Analytical Sciences, Shenzhen, China).
# K. pneumoniae K2 [1] = assay: Bacterial killing assay, K. pneumoniae; conditions: 10^5 CFU/ml, PBS, 1 h 37°C; SP-A 0.11 µM, rfhSP-A 0.7 µM; increasing LL-37; CFU counting
# Experimental: (§2) Klebsiella pneumoniae 52145 (serotype K2:O1), nontypeable Haemophilus influenzae strain 375 (NTHi), and P. aeruginosa (PAO1) are clinical isolates, as previously described ([40]–[42]). P. aeruginosa, and K. pneumoniae K2 were grown in Luria–Bertani (LB) broth at 37°C with continuous shaking to the exponential phase. Frozen stocks of NTHi strains were thawed and then grown on chocolate agar plates during 18 h at 37°C in a humidified 5% CO2 atmosphere. Then, NTHi were grown to the exponential phase on brain heart infusion broth (BHI) supplemented with 10 µg/ml hemin and 10 µg/ml β-nicotinamide adenine dinucleotide (β-NAD) (sBHI) with continuous shaking at 37°C in a humidified 5% CO^2 atmosphere. Exponential-phase bacteria were then harvested by centrifugation at 500 g for 10 min, resuspended in PBS, and adjusted to the desired final concentration, as described in ([24]).
# (§3) The microbicidal activity of LL-37 in the presence of SP-A or rfhSP-A was evaluated by colony counts on plate assays ([24], [25]). […] Viable bacteria were enumerated by colony count and results were expressed as a percentage of relative survival in comparison to untreated bacteria.
# [2] = Circular dichroism: secondary structure with and without bacterial lipid vesicles; assay type: physicochemical; conditions: far-UV CD, 25°C, 5 mM Tris-HCl, 150 mM NaCl pH 7.4; 100 µg/ml LL-37, 75 µg/ml SP-A or rfhSP-A; mixture compared with sum of individual spectra
# Experimental: Circular dichroism (CD) spectra were obtained on a Jasco J-715 spectropolarimeter fitted with a 150 W xenon lamp ([38]). Quartz cells with a 0.1 cm optical path length were used, and the spectra were recorded in the far-UV region (190-260 nm) with a scanning speed of 50 nm/minute at 25°C. Four scans were accumulated and averaged for each spectrum. The acquired spectra were corrected by subtracting the appropriate blanks, subjected to noise reduction analysis, and presented as molar ellipticities (degrees cm2 dmol-1) assuming 110 Da as the average molecular mass per amino acid residue. At least three independent preparations of LL-37, SP-A, and rfhSP-A were measured. Spectra Manager Software (Jasco version 1.53) was used.
# Two types of lipid vesicles were used: vesicles mimicking the bacterial cell wall (Re-LPS/BPL at a ratio of 08:02 by weight), and vesicles of bacterial inner membrane phospholipids (BPL). The final concentrations were 100 μg/ml (22.2 μM) for LL-37, 75 μg/ml (0.11 μM) for SP-A, and 75 μg/ml (1.3 μM) for rfhSP-A, in a final volume of 200 μl of 5 mM Tris-HCl, NaCl 150 mM, pH 7.4 buffer.
# Vesicles mimicking the inner membrane of Gram-negative bacteria were prepared by mixing POPE, POPG, and CL at weight ratios of 67:23:10. […]
# influenza A virus = conditions: cited from earlier work
# Excerpt: (§1) The host appears to protect its own cells from LL-37 cytotoxicity by several mechanisms. […] In addition, the C1q globular head receptor (gC1qR, also known as p33) protects ...
# [3] = tested on: alveolar epithelial cells; conditions: cited from earlier work
# Excerpt: as §1
# [4] = LPS vesicle aggregation assay (turbidity, DLS); assay type: biochemical, Salmonella enterica serotype Minnesota; conditions: Re-LPS/BPL 50 µg/ml, 75 nM SP-A, 1.1 µM LL-37, 0.43 µM rfhSP-A, 37°C
# Experimental: Vesicles mimicking the inner membrane of Gram-negative bacteria were prepared by mixing POPE, POPG, and CL at weight ratios of 67:23:10. Alternatively, vesicles mimicking bacterial outer membrane were prepared by adding ReLPS to the POPE/POPG/CL mixture (BPL, bacterial phospholipids) at a weight ratio of 8:2, as previously reported ([25]). Multilamellar vesicles and large unilamellar vesicles of DPPC and surfactant-like vesicles composed of DPPC, POPG, and palmitic acid (PA) (at weight ratios of 23:10:1.6) were prepared as previously reported ([28], [33]–[35], [39]).
# Turbidity measurements: The effects of SP-A, rfhSP-A, and calcium on the aggregation of LPS vesicles that mimic bacterial outer membranes were studied in the absence and presence of LL-37 by measuring the change in absorbance at 400 nm in a Beckman DU-800 spectrophotometer ([28], [39]). Briefly, LPS vesicles (50 μg/ml) were added to both the sample and the reference cuvettes in 5 mM Tris-HCl and 150 mM NaCl 0.1 mM EDTA buffer, pH 7.4. After 10 min equilibration at 37°C, either human SP-A, rfhSP-A, LL-37, or combinations thereof was added to the sample cuvette, and the change in optical density at 400 nm was monitored. Next, 2.5 mM Ca^2+ was added to both the sample and reference cuvettes, and the change in absorbance was monitored again. Aggregation of surfactant phospholipid vesicles was performed in the same way. […]
# K. pneumoniae = assay: Bacterial membrane permeabilization, Sytox Green; assay type: cell-based, Klebsiella pneumoniae; conditions: 2.2 µM LL-37, 0.075 µM SP-A, 0.4 µM rfhSP-A, PBS pH 7.4, 37°C; three independent experiments
# Experimental: The ability of LL-37, SP-A, rfhSP-A, and combinations thereof to permeabilize the outer and cytoplasmic bacterial membranes was studied in live bacteria by quantifying the internalization of the impermeant fluorescent Sytox Green, since its fluorescence increases when binding to bacterial DNA. For the measurement of Sytox Green influx, the probe (1 μM) was added to 1 ml of bacterial suspension (2x10^7 CFU/ml) in PBS and the sample was incubated for 15 min in darkness at room temperature as described in ([25]). Then, the fluorescence of the Sytox Green/bacterial suspension mixture was monitored for 4 hours in a FLUOstar Omega microplate reader (BMG LabTechnologies, Ortenberg, Germany) at excitation and emission wavelengths of 485 and 520 nm, respectively. PBS was used as a negative control, whereas ethanol (70%) was used as a positive control. Background fluorescence was measured in non-labeled bacteria.
# P. aeruginosa = assay: Bacterial killing assay, P. aeruginosa; conditions: 10^5 CFU/ml, PBS, 1 h 37°C; SP-A 0.012 µM, rfhSP-A 0.075 µM; increasing LL-37
# Experimental: as §2, §3
# [5] = tested on: nontypeable Haemophilus influenzae; assay: Bacterial killing assay, NTHi; conditions: 10^5 CFU/ml, PBS + 1% TSB, 1 h 37°C; SP-A 0.025 µM, rfhSP-A 0.15 µM; increasing LL-37
# Experimental: as §2, §3
# K. pneumoniae K2 [6] = assay: Transmission electron microscopy of bacteria; assay type: cell-based, Klebsiella pneumoniae; conditions: LL-37 55.5 µM, SP-A 0.3 µM, rfhSP-A 1.5 µM, 30 min 37°C PBS; TEM
# Experimental: The effect of LL-37, SP-A, rfhSP-A, and combinations thereof on the ultrastructure of K. pneumoniae was visualized by means of transmission electron microscopy, as described in ([25]). […] Cells were spun down and PBS medium was removed. Cell pellets were then chemically fixed with 4% paraformaldehyde and 2.5% glutaraldehyde for 4 h at 4°C and washed three times with PBS. Next, bacteria were post-fixed with 1% osmium tetroxide for 1 h. Samples were then washed thrice with bi-distilled water and dehydrated using sequential exposure to acetone concentrations ranging from 30% to 100% for 15 min at room temperature. Next, infiltration and embedding were performed using Spurr’s resin. The samples were sectioned using an ultramicrotome with a diamond knife and were mounted on copper grids. Samples were examined on a JEOL JEM 1010 electron microscope (JEOL, Tokyo, Japan).
# [7] = cited from earlier work
# Excerpt: The host appears to protect its own cells from LL-37 cytotoxicity by several mechanisms.
# human endothelial cells = conditions: cited from earlier work
# Excerpt: as §1
Compound,"IL-8 release, A549, with P2X7 inhibitor (A549 cells)",effect on antibacterial activity of LL-37 against K. pneumoniae (K. pneumoniae K2 [1]),CD spectrum / change in α-helical content [2],"antiviral activity against influenza A virus, LL-37 with SP-A (influenza A virus)",effect on human β-defensin 3 cytotoxicity on alveolar epithelial cells [3],"LPS vesicle aggregation (scattered light), with calcium ([4]; 2.5 mM Ca2+, pH 7.4)","LPS vesicle turbidity (400 nm), no calcium ([4]; pH 7.4, before Ca2+)",Sytox Green permeabilization of K. pneumoniae (K. pneumoniae),effect on antibacterial activity of LL-37 against P. aeruginosa (P. aeruginosa),effect on antibacterial activity of LL-37 against NTHi [5],effect on ultrastructure of K. pneumoniae (K. pneumoniae K2 [6]),effect on antimicrobial activity of LL-37 [7],effect on LL-37 cytotoxicity on human endothelial cells (human endothelial cells)
SP-A: Human surfactant protein A isolated from bronchoalveolar lavage fluid of patients with alveolar proteinosis,not observed in the presence of the P2X7 inhibitor,neither SP-A nor rfhSP-A modifies the antibacterial activity of LL-37,marked decrease of negative ellipticity without any shift of the minimum at 207 nm,additive antiviral activity against influenza A virus,reduced cytotoxicity on alveolar epithelial cells,greatly increased,did not affect sample turbidity,did not affect the fluorescence of the dye,neither SP-A nor rfhSP-A modifies the antibacterial activity of LL-37,neither SP-A nor rfhSP-A modifies the antibacterial activity of LL-37,did not cause any perturbation of the bacterial cell wall,,
"Clc1cccc(-c2nnnn2Cc2cccnc2)c1Cl [A-438079, reference compound]",decreased LL-37-induced IL-8 secretion,,,,,,,,,,,,
apolipoprotein A-I: HDL apolipoprotein A-I,,,,,,,,,,,,reduces the antimicrobial activity of LL-37,reduces the cytotoxicity of LL-37 on human endothelial cells
